Test results taken from PubChem BioAssay (NCI).
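Grown in 96-well plates, cells were treated for 48 hours with each compound at five concentrations. Insufficient inhibition: endpoint recorded as highest concentration tested. TGI: concentration producing complete growth inhibition.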

Assays:
Experiment in all cases: NCI anticancer screen, dose series, 48 h
786-0 renal = test system: 786-0 renal
A498 renal = test system: A498 renal
A549 NSCLC = test system: A549 NSCLC
ACHN renal = test system: ACHN renal
BT-549 breast = test system: BT-549 breast
CAKI-1 renal = test system: CAKI-1 renal
CCRF-CEM leukemia = test system: CCRF-CEM leukemia
COLO 205 colon = test system: COLO 205 colon
DU-145 prostate = test system: DU-145 prostate
EKVX NSCLC = test system: EKVX NSCLC
HCC-2998 colon = test system: HCC-2998 colon
HCT-116 colon = test system: HCT-116 colon
HCT-15 colon = test system: HCT-15 colon
HL-60(TB) leukemia = test system: HL-60(TB) leukemia
HOP-62 NSCLC = test system: HOP-62 NSCLC
HOP-92 NSCLC = test system: HOP-92 NSCLC
HS 578T breast = test system: HS 578T breast
HT29 colon = test system: HT29 colon
IGROV1 ovarian = test system: IGROV1 ovarian
K-562 leukemia = test system: K-562 leukemia
KM12 colon = test system: KM12 colon
LOX IMVI melanoma = test system: LOX IMVI melanoma
M14 melanoma = test system: M14 melanoma
MALME-3M melanoma = test system: MALME-3M melanoma
MCF7 breast = test system: MCF7 breast
MDA-MB-231 breast = test system: MDA-MB-231 breast
MDA-MB-435 = test system: MDA-MB-435
MDA-N = test system: MDA-N
MOLT-4 leukemia = test system: MOLT-4 leukemia
NCI-H226 lung = test system: NCI-H226 lung
NCI-H23 lung = test system: NCI-H23 lung
NCI-H460 lung = test system: NCI-H460 lung
NCI-H522 lung = test system: NCI-H522 lung
NCI/ADR-RES ovarian = test system: NCI/ADR-RES ovarian
OVCAR-3 ovarian = test system: OVCAR-3 ovarian
OVCAR-4 ovarian = test system: OVCAR-4 ovarian
OVCAR-5 ovarian = test system: OVCAR-5 ovarian
OVCAR-8 ovarian = test system: OVCAR-8 ovarian
PC-3 prostate = test system: PC-3 prostate
RPMI-8226 leukemia = test system: RPMI-8226 leukemia
RXF 393 renal = test system: RXF 393 renal
SF-268 CNS = test system: SF-268 CNS
SF-295 CNS = test system: SF-295 CNS
SF-539 CNS = test system: SF-539 CNS
SK-MEL-2 melanoma = test system: SK-MEL-2 melanoma
SK-MEL-28 melanoma = test system: SK-MEL-28 melanoma
SK-MEL-5 melanoma = test system: SK-MEL-5 melanoma
SK-OV-3 ovarian = test system: SK-OV-3 ovarian
SN12C renal = test system: SN12C renal
SNB-19 CNS = test system: SNB-19 CNS
SNB-75 CNS = test system: SNB-75 CNS
SR leukemia = test system: SR leukemia
SW-620 colon = test system: SW-620 colon
T-47D breast = test system: T-47D breast
TK-10 renal = test system: TK-10 renal
U251 CNS = test system: U251 CNS
UACC-257 melanoma = test system: UACC-257 melanoma
UACC-62 melanoma = test system: UACC-62 melanoma
UO-31 renal = test system: UO-31 renal

## N#C/C(=C\Nc1ccccn1)C(=O)C1CC1
786-0 renal
  TGI: > 100 µM
A498 renal
  TGI: > 100 µM
A549 NSCLC
  TGI: > 100 µM
ACHN renal
  TGI: > 100 µM
BT-549 breast
  TGI: > 100 µM
CAKI-1 renal
  TGI: > 100 µM
CCRF-CEM leukemia
  TGI: > 100 µM
COLO 205 colon
  TGI: > 100 µM
DU-145 prostate
  TGI: > 100 µM
EKVX NSCLC
  TGI: > 100 µM
HCC-2998 colon
  TGI: > 100 µM
HCT-116 colon
  TGI: > 100 µM
HCT-15 colon
  TGI: > 100 µM
HL-60(TB) leukemia
  TGI: > 100 µM
HOP-62 NSCLC
  TGI: > 100 µM
HOP-92 NSCLC
  TGI: > 100 µM
HS 578T breast
  TGI: > 100 µM
HT29 colon
  TGI: > 100 µM
IGROV1 ovarian
  TGI: > 100 µM
K-562 leukemia
  TGI: > 100 µM
KM12 colon
  TGI: > 100 µM
LOX IMVI melanoma
  TGI: > 100 µM
M14 melanoma
  TGI: > 100 µM
MALME-3M melanoma
  TGI: > 100 µM
MCF7 breast
  TGI: > 100 µM
MDA-MB-231 breast
  TGI: > 100 µM
MDA-MB-435
  TGI: > 100 µM
MDA-N
  TGI: > 100 µM
MOLT-4 leukemia
  TGI: > 100 µM
NCI-H226 lung
  TGI: > 100 µM
NCI-H23 lung
  TGI: > 100 µM
NCI-H460 lung
  TGI: > 100 µM
NCI-H522 lung
  TGI: > 100 µM
NCI/ADR-RES ovarian
  TGI: > 100 µM
OVCAR-3 ovarian
  TGI: > 100 µM
OVCAR-4 ovarian
  TGI: > 100 µM
OVCAR-5 ovarian
  TGI: > 100 µM
OVCAR-8 ovarian
  TGI: > 100 µM
PC-3 prostate
  TGI: > 100 µM
RPMI-8226 leukemia
  TGI: > 100 µM
RXF 393 renal
  TGI: > 100 µM
SF-268 CNS
  TGI: > 100 µM
SF-295 CNS
  TGI: > 100 µM
SF-539 CNS
  TGI: > 100 µM
SK-MEL-2 melanoma
  TGI: > 100 µM
SK-MEL-28 melanoma
  TGI: > 100 µM
SK-MEL-5 melanoma
  TGI: > 100 µM
SK-OV-3 ovarian
  TGI: > 100 µM
SN12C renal
  TGI: > 100 µM
SNB-19 CNS
  TGI: > 100 µM
SNB-75 CNS
  TGI: > 100 µM
SR leukemia
  TGI: > 100 µM
SW-620 colon
  TGI: > 100 µM
T-47D breast
  TGI: > 100 µM
TK-10 renal
  TGI: > 100 µM
U251 CNS
  TGI: > 100 µM
UACC-257 melanoma
  TGI: > 100 µM
UACC-62 melanoma
  TGI: > 100 µM
UO-31 renal
  TGI: > 100 µM

## COc1ccc(C2Oc3ccc(Cl)cc3C=C2[N+](=O)[O-])cc1OC (configuration not stated)
786-0 renal
  TGI: 0.871 µM
A498 renal
  TGI: 7.36 µM
A549 NSCLC
  TGI: 5.04 µM
ACHN renal
  TGI: 2.77 µM
BT-549 breast
  TGI: 2.62 µM
CAKI-1 renal
  TGI: 3.93 µM
CCRF-CEM leukemia
  TGI: 0.372 µM
COLO 205 colon
  TGI: 4.41 µM
DU-145 prostate
  TGI: 2.97 µM
EKVX NSCLC
  TGI: 7.13 µM
HCC-2998 colon
  TGI: 3.33 µM
HCT-116 colon
  TGI: 1.62 µM
HCT-15 colon
  TGI: 3.09 µM
HL-60(TB) leukemia
  TGI: 0.47 µM
HOP-62 NSCLC
  TGI: 3.12 µM
HOP-92 NSCLC
  TGI: 4.33 µM
HS 578T breast
  TGI: 15.5 µM
IGROV1 ovarian
  TGI: 3.35 µM
K-562 leukemia
  TGI: 1.08 µM
KM12 colon
  TGI: 2.86 µM
LOX IMVI melanoma
  TGI: 1.43 µM
M14 melanoma
  TGI: 1.63 µM
MALME-3M melanoma
  TGI: 4.28 µM
MCF7 breast
  TGI: 3.39 µM
MDA-MB-231 breast
  TGI: 2.59 µM
MDA-MB-435
  TGI: 1.21 µM
MDA-N
  TGI: 1.11 µM
MOLT-4 leukemia
  TGI: 0.733 µM
NCI-H226 lung
  TGI: 4.24 µM
NCI-H23 lung
  TGI: 4.35 µM
NCI-H460 lung
  TGI: 5.95 µM
NCI-H522 lung
  TGI: 2.66 µM
NCI/ADR-RES ovarian
  TGI: 2.12 µM
OVCAR-3 ovarian
  TGI: 2.06 µM
OVCAR-4 ovarian
  TGI: 3.46 µM
OVCAR-5 ovarian
  TGI: 3.14 µM
OVCAR-8 ovarian
  TGI: 2.64 µM
PC-3 prostate
  TGI: 2.95 µM
RPMI-8226 leukemia
  TGI: 0.608 µM
RXF 393 renal
  TGI: 3.04 µM
SF-268 CNS
  TGI: 5 µM
SF-295 CNS
  TGI: 3.46 µM
SF-539 CNS
  TGI: 3.13 µM
SK-MEL-2 melanoma
  TGI: 3.05 µM
SK-MEL-28 melanoma
  TGI: 3.58 µM
SK-MEL-5 melanoma
  TGI: 2.96 µM
SK-OV-3 ovarian
  TGI: 6.11 µM
SN12C renal
  TGI: 2.82 µM
SNB-19 CNS
  TGI: 5.02 µM
SNB-75 CNS
  TGI: 2.45 µM
SR leukemia
  TGI: 0.307 µM
SW-620 colon
  TGI: 0.497 µM
T-47D breast
  TGI: 4.35 µM
TK-10 renal
  TGI: 2.87 µM
U251 CNS
  TGI: 2.35 µM
UACC-257 melanoma
  TGI: 4.07 µM
UACC-62 melanoma
  TGI: 3.65 µM
UO-31 renal
  TGI: 3.47 µM
